Patent US11590116B2 (THERAVANCE BIOPHARMA R&D IP, LLC, priority 2019, dated 2023)

Key:
[1] = target: T1, recombinant human ALK5 (TGF-βR1) protein (Homo sapiens, UniProt P36897); test: Biochemical ALK5 (TGF-βR1) assay to measure pKi (LANCE Ultra ULight kinase assay); settings: apparent pKi from pIC50 by Cheng-Prusoff, read-out: ALK5 pKi (converted)
T1 construct: purchased Life Technologies PR9075A
T1 sequence (P36897 34-503): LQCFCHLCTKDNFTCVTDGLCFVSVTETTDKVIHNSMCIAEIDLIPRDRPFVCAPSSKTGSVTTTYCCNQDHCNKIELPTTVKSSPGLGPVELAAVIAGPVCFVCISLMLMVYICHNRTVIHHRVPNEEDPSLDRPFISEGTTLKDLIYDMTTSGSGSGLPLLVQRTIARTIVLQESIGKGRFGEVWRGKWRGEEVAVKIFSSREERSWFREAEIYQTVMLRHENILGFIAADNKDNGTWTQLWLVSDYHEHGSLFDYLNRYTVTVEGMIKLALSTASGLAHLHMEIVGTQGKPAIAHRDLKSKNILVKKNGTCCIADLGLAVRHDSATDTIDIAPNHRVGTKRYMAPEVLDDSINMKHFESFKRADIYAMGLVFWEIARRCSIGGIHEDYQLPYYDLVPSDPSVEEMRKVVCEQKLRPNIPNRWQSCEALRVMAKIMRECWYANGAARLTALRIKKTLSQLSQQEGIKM
Procedure, shortened: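 Compounds (10 μM to 25 pM) preincubated 60 minutes at room temperature with enzyme, then reaction run 60 minutes at 37° C with ATP added as 125 μM (5× final). Stopped with EDTA plus Eu-anti-phospho-Topoisomerase 2-alpha (Thr1342) antibody, TR-FRET read at 665 nm; pIC50 converted to pKi via Cheng-Prusoff.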

[2] = tested on: TGF-β-stimulated SMAD3 phosphorylation in BEAS-2B cells; test: Cellular ALK5 potency assay, inhibition of TGF-β stimulated pSMAD3 formation in BEAS-2B cells; assay type: cell-based; settings: Homo sapiens; inhibition of TGF-β stimulated pSMAD3 formation, BEAS-2B cells; read-out: BEAS2B pIC50 (converted)
Procedure, shortened: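 Cells seeded overnight; rinse with supplemented HBSS; compound 1 h at 37 °C; TGF-β 10 ng/mL final, 30 min; lyse; AlphaLISA acceptor and detector beads 2 h apart, read next day. Potency expressed as pIC50.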

| Ki [1] [nM] | SMILES | IC50 [2] [nM] |
| --- | --- | --- |
| 0.398 to 3.16 | Cc1cccc(-c2[nH]nnc2-c2ccc3ncc(NCCN4CCN(C(C)C)CC4)cc3n2)n1 [Compound 46, N-[2-(4-isopropylpiperazin-1-yl)ethyl]-6-[5-(6-methyl-2-pyridyl)-1H-triazol-4-yl]-1,5-naphthyridin-3-amine] | 200 to 1260 |
| 0.0398 to 0.316 | Cc1cccc(-c2[nH]nnc2-c2ccc3ncc(N4CCC(N5CCN(C)CC5)CC4)cc3n2)n1 [Compound 119, 7-[4-(4-methylpiperazin-1-yl)-1-piperidyl]-2-[5-(6-methyl-2-pyridyl)-1H-triazol-4-yl]-1,5-naphthyridine] | 200 to 1260 |
| 0.0398 to 0.316 | Cc1cccc(-c2n[nH]cc2-c2ccc3ncc(N(C)C4CCNC4)cc3n2)n1 (racemic) [Compound 242, N-methyl-6-[3-(6-methyl-2-pyridyl)-1H-pyrazol-4-yl]-N-[rac-(3R)-pyrrolidin-3-yl]-1,5-naphthyridin-3-amine] | 25.1 to 158 |
| 0.0398 to 0.316 | Cc1cccc(-c2n[nH]cc2-c2ccc3ncc(N4CCNC(CO)C4)cc3n2)n1 (centres unmarked) [Compound 66, [4-[6-[3-(6-methyl-2-pyridyl)-1H-pyrazol-4-yl]-1,5-naphthyridin-3-yl]piperazin-2-yl]methanol] | 25.1 to 158 |
| 0.0398 to 0.316 | Cc1cccc(-c2[nH]cnc2-c2ccc3ncc(-c4cncc(CN5C[C@@H](C)N[C@@H](C)C5)c4)cc3c2)n1 [Compound 1106, 3-[5-[[(3S,5R)-3,5-dimethylpiperazin-1-yl]methyl]-3-pyridyl]-6-[5-(6-methyl-2-pyridyl)-1H-imidazol-4-yl]quinoline] | 25.1 to 158 |
| 0.0398 to 0.316 | Cc1cccc(-c2[nH]cnc2-c2ccc3ncc(-c4nc5c(s4)CNCC5)cc3c2)n1 [Compound 1068, 2-[6-[5-(6-methyl-2-pyridyl)-1H-imidazol-4-yl]-3-quinolyl]-4,5,6,7-tetrahydrothiazolo[5,4-c]pyridine] | < 20 |
| 0.0398 to 0.316 | COc1n[nH]c(-c2cccc(C)n2)c1-c1ccc2ncc(-c3cccnc3)cc2n1 [Compound 105, 2-(5-methoxy-3-(6-methylpyridin-2-yl)-1H-pyrazol-4-yl)-7-(pyridin-3-yl)-1,5-naphthyridine] | 25.1 to 158 |
| 0.0398 to 0.316 | Cc1cccc(-c2[nH]cnc2-c2ccc3ncc(-c4ncc(C5=CCNC5)s4)cc3c2)n1 [Compound 1118, 5-(2,5-dihydro-1H-pyrrol-3-yl)-2-[6-[5-(6-methyl-2-pyridyl)-1H-imidazol-4-yl]-3-quinolyl]thiazole] | < 20 |
| 0.0398 to 0.316 | Cc1cccc(-c2n[nH]cc2-c2ccc3ncc(-c4cn(Cc5cccnc5)nn4)cc3n2)n1 [Compound 35, 2-[3-(6-methyl-2-pyridyl)-1H-pyrazol-4-yl]-7-[1-(3-pyridylmethyl)triazol-4-yl]-1,5-naphthyridine] | < 20 |
| 0.0398 to 0.316 | Cc1cccc(-c2[nH]cnc2-c2ccc3ncc(-c4ccc(C(=O)OCCN5CCNCC5)s4)cc3c2)n1 [Compound 1088, 2-piperazin-1-ylethyl 5-[6-[5-(6-methyl-2-pyridyl)-1H-imidazol-4-yl]-3-quinolyl]thiophene-2-carboxylate] | 25.1 to 158 |
| 0.398 to 3.16 | Cc1cccc(-c2[nH]ncc2-c2ccc3ncc(C(=O)O[C@@H]4CCN(C)C4)cc3n2)n1 [Compound 421, [(3R)-1-methylpyrrolidin-3-yl] 6-[5-(6-methyl-2-pyridyl)-1H-pyrazol-4-yl]-1,5-naphthyridine-3-carboxylate] | 25.1 to 158 |
| 0.0398 to 0.316 | Cc1cccc(-c2n[nH]cc2-c2ccc3ncc(N(C)CCN4CCOCC4)cc3n2)n1 [Compound 103, N-methyl-6-[3-(6-methyl-2-pyridyl)-1H-pyrazol-4-yl]-N-(2-morpholinoethyl)-1,5-naphthyridin-3-amine] | 25.1 to 158 |
| 0.0398 to 0.316 | Cc1cccc(-c2[nH]cnc2-c2ccc3ncc(-c4csc(C(=O)O[C@H]5CCNC5)c4)cc3c2)n1 [Compound 754, [(3S)-pyrrolidin-3-yl] 4-[6-[5-(6-methyl-2-pyridyl)-1H-imidazol-4-yl]-3-quinolyl]thiophene-2-carboxylate] | 25.1 to 158 |
